Entries after “also recorded” stand apart in the source; their conditions may differ. Counter-ions that a name gives are not always drawn. Like-named read-outs stand apart in the source and are kept apart here. Blank lines part the entries; values can stand above or below the compound they belong to.
How the values were obtained:
[1] = Water solubility; type: physicochemical
[2] = literature; cited from earlier work
[3] = test system: conscious renally hypertensive dogs; assay: Blood pressure lowering in conscious renally hypertensive dogs, oral; type: in vivo, dog
Protocol: The antihypertensive activity of the compounds of the invention is shown by their ability to lower the blood pressure of conscious spontaneously hypertensive rats and conscious renally hypertensive dogs, when administered orally at doses of up to 30 mg./kg.
Similarly, at the same dosage 2-[4-(2-hydroxy-2-methylprop-1-yloxycarbonyl)piperazin-1-yl]-4-amino-6-chloro-7-methoxyquinazoline, a particularly preferred compound of the invention, caused a reduction of 40 mm. Hg after one hour which increased only by 20 mm. Hg 6 hours after administration; and another particularly preferred compound: 2-[4-(2-furoyl)-1-piperazinyl]-4-amino-6-chloro-7-methoxyquinazoline effected a reduction in blood pressure of 40 mm. Hg which increased by only 5 mm. Hg six hours after the oral dose (0.2 mg./hg.) had been administered.

[4] = Althuis et al., J. Med. Chem., 20, 146 (1977); cited from earlier work
[5] = water, hydrochloride salts, read-out: water solubility
[6] = Example 10 table, hydrochloride salts except as otherwise noted, solvent not given, read-out: Solubility

Compound: COc1cc2nc(N3CCN(C(=O)OCC(C)(C)O)CC3)nc(N)c2cc1Cl [Example 9B, hydrochloride]
solubility [1, 5]: 6 mg/mL

Compound: COc1cc2nc(N3CCN(C(=O)c4ccco4)CC3)nc(N)c2cc1Cl.Cl [Example 8B, 2-[4-(2-Furoyl)piperazine-1-yl]-4-amino-6-chloro-7-methoxyquinazoline hydrochloride]
solubility [1, 5]: 5 mg/mL

Compound: COc1ccc2c(N)nc(N3CCN(Cc4ccccc4)CC3)nc2c1OC [CH2 C6 H5]
solubility [1, 6]: 100 mg/mL

Compound: COc1c(Cl)cc2c(N)nc(N3CCN(C(=O)c4ccco4)CC3)nc2c1OC.Cl [Example 8A, 2-[4-(2-Furoyl)piperazine-1-yl]-4-amino-6-chloro-7,8-dimethoxyquinazoline hydrochloride]
solubility [1, 5]: 8 mg/mL

Compound: COc1cc2c(N)nc(N3CCN(C(=O)OCC(C)(C)O)CC3)nc2c(OC)c1OC [Trimazosin]
antihypertensive activity / potency [2]: active antihypertensive agent; also recorded: less potent than prazosin

Compound: COc1cc2nc(N3CCN(C(=O)c4ccco4)CC3)nc(N)c2cc1Cl [2-[4-(2-furoyl)-1-piperazinyl]-4-amino-6-chloro-7-methoxyquinazoline]
reduction in blood pressure ([3]; 0.2 mg./hg. as printed, time of reduction not given): 40 mm. Hg
heart rate change ([3]; 0.2 mg./kg.): no significant heart rate change
other side effect ([3]; 0.2 mg./kg.): no significant heart rate change or other unwanted side effect
increase (return) of the reduced blood pressure 6 hours after administration ([3]; 0.2 mg./kg.): 5 mm. Hg

Compound: COc1cc2nc(N3CCN(C(=O)c4ccco4)CC3)nc(N)c2cc1O [6-0-demethyl derivative]
antihypertensive activity / potency [2]: considerably lower blood pressure lowering activity
metabolite of prazosin [4]: major metabolite of prazosin

Compound: COc1ccc2c(N)nc(N3CCN(c4cccc(C(F)(F)F)c4)CC3)nc2c1OC [3-CF3 C6 H4]
solubility [1, 6]: 8 mg/mL

Compound: COc1ccc2c(N)nc(N3CCC(Cc4ccccc4)CC3)nc2c1OC.Cl [Example 13, 2-(4-Benzylpiperidin-1-yl)-4-amino-7,8-dimethoxyquinazoline hydrochloride]
solubility [1, 5]: 6 mg/mL

Compound: COc1ccc2c(N)nc(N3CCCN(C(=O)C4CCCO4)CC3)nc2c1OC.Cl (stereo not shown) [Example 12, 2-[4-(2-Tetrahydrofuroyl)homopiperazin-1-yl]-4-amino-7,8-dimethoxyquinazoline hydrochloride]
solubility [1, 5]: 120 mg/mL

Compound: COc1c(Cl)cc2c(N)nc(N3CCN(C(=O)OCC(C)(C)O)CC3)nc2c1OC [2-[4-(2-hydroxy-2-methylprop-1-yloxycarbonyl)piperazin-1-yl]-4-amino-6-chloro-7,8-dimethoxyquinazoline]
heart rate change ([3]; 0.2 mg./kg.): no significant change in heart rate
other side effect ([3]; 0.2 mg./kg.): no significant change in heart rate or other side effect
decrease of blood pressure after 4 hours ([3]; 0.2 mg./kg., 4 hours, statistically significant): 30 mm. Hg

Compound: COc1cc2nc(N3CCN(C(=O)OCC(C)(C)O)CC3)nc(N)c2cc1Cl [2-[4-(2-hydroxy-2-methylprop-1-yloxycarbonyl)piperazin-1-yl]-4-amino-6-chloro-7-methoxyquinazoline]
heart rate change ([3]; 0.2 mg./kg.): no significant heart rate change
other side effect ([3]; 0.2 mg./kg.): no significant heart rate change or other unwanted side effect
increase (return) of the reduced blood pressure 6 hours after administration ([3]; 0.2 mg./kg.): 20 mm. Hg
reduction of blood pressure after one hour ([3]; same dosage (0.2 mg./kg.), one hour): 40 mm. Hg

Compound: COc1cc2c(N)nc(N3CCN(C(=O)c4ccco4)CC3)nc2cc1O [7-0-demethyl derivative]
metabolite of prazosin [4]: less prevalent metabolite

Compound: COc1ccc2c(N)nc(N3CCN(c4ccccc4)CC3)nc2c1OC [C6 H5]
solubility [1, 6]: 25 mg/mL

Compound: COc1cc2nc(N3CCN(C(=O)c4ccco4)CC3)nc(N)c2cc1OC [prazosin, 2-[4-(2-furoyl)piperazin-1-yl]-4-amino-6,7-dimethoxyquinazoline]
antihypertensive activity / potency [2]: clinically useful antihypertensive agent

The remaining lines, values ahead:

solubility [1, 6]: 40 mg/mL
Compound: COC(=O)N1CCN(c2nc(N)c3ccc(OC)c(OC)c3n2)CC1 [COOCH3]

solubility [1, 5]: 20 mg/mL
Compound: COc1ccc2c(N)nc(N3CCN(C(=O)c4ccco4)CC3)nc2c1OC.Cl [Example 4, 2-[4-(2-Furoyl)piperazine-1-yl]-4-amino-7,8-dimethoxyquinazoline hydrochloride]

solubility [1, 6]: 140 mg/mL
Compound: CCCOC(=O)N1CCN(c2nc(N)c3ccc(OC)c(OC)c3n2)CC1 [COO(CH2)2 CH3]

solubility [1, 5]: 30 mg/mL
Compound: COc1ccc2c(N)nc(N3CCCN(C(=O)c4ccco4)CC3)nc2c1OC [Example 11, 2-[4-(2-Furoyl-homopiperazine-1-yl]-4-amino-7,8-dimethoxyquinazoline hydrochloride]

solubility [1, 6]: 25 mg/mL
Compound: COc1ccc2c(N)nc(N3CCN(C(=O)OCCC(C)C)CC3)nc2c1OC [COO(CH2)2 CH(CH3)2]

solubility [1, 6]: 40 mg/mL
Compound: COc1ccc2c(N)nc(N3CCN(C(=O)OCC(C)C)CC3)nc2c1OC [COOCH2 CH(CH3)2]

solubility [1, 6]: 95 mg/mL
Compound: COc1ccc2c(N)nc(N3CCN(CCO)CC3)nc2c1OC [CH2 CH2 OH]

solubility [1, 6]: 50 mg/mL
Compound: COc1ccc2c(N)nc(N3CCN(C(=O)c4ccccc4)CC3)nc2c1OC

solubility [1, 6]: 11 mg/mL
Compound: COc1ccc2c(N)nc(N3CCN(C(=O)c4cccs4)CC3)nc2c1OC

solubility [1, 6]: 90 mg/mL
Compound: CCCCOC(=O)N1CCN(c2nc(N)c3ccc(OC)c(OC)c3n2)CC1 [COO(CH 2)3 CH3]

solubility [1, 6]: 15 mg/mL
Compound: COc1ccc2c(N)nc(N3CCN(C(=O)C4COc5ccccc5O4)CC3)nc2c1OC (stereo not shown)

solubility [1, 5]: 35 mg/mL
Compound: COc1c(Cl)cc2c(N)nc(N3CCN(C(=O)OCC(C)(C)O)CC3)nc2c1OC.Cl [Example 9A, 2-Methyl-2-hydroxypropyl 4-[4-amino-6-chloro-7,8-dimethoxyquinazolin-2-yl]piperazine-1-carboxylate hydrochloride]

solubility [1, 6]: 50 mg/mL
Compound: C=CCN1CCN(c2nc(N)c3ccc(OC)c(OC)c3n2)CC1 [CH2 CHCH2]

solubility [1, 6]: 50 mg/mL
Compound: CCOC(=O)N1CCN(c2nc(N)c3ccc(OC)c(OC)c3n2)CC1 [COOCH2 CH3]

solubility [1, 6]: 150 mg/mL
Compound: COc1ccc2c(N)nc(N3CCN(C(=O)C4CCCO4)CC3)nc2c1OC (stereo not shown)

solubility [1, 6]: 40 mg/mL
Compound: CCCCCOC(=O)N1CCN(c2nc(N)c3ccc(OC)c(OC)c3n2)CC1 [COO(CH2)4 CH3]
